Patent publication US4681871A, “Pharmacologically active peptides” (priority 1979, dated 1987)
Ends that are not written are not given here. Peptide text beside a SMILES is read from it.

Assays:
[1] = test system: longitudinal muscle plexusmyentericus preparation of guinea pig ileum; experiment: opiate-like activity on electrically stimulated guinea pig ileum preparation; assay type: cell-based; conditions: guinea pig intestine preparation; naloxon-reversible restriction of contractions
[2] = test system: Pronase E (Merck); experiment: resistance against proteases (Pronase E incubation, then opiate test); assay type: in vitro ADME; conditions: 0.02 mg Pronase E, tris-buffer pH 8, 37° C., 1 to 4 hours; compared with control without enzyme
Experimental: As proof of the resistance against proteases we would like to cite an example: 0.3 mg β-casomorphin-7 was incubated in 0.6 ml tris-buffer pH 8 with 0.02 mg Pronase E (Merck) at 37° C. for 1 to 4 hours. After the end of the incubation, the mixture, for the purpose of destroying the Pronase, was heated at 95° C. for 15 minutes.

Row | Molecule | opiate-like activity [1] | loss of opiate activity after protease incubation [2]
1 | COC(=O)CNC(=O)[C@@H]1CCCN1C(=O)[C@H](Cc1ccccc1)NC(=O)[C@@H]1CCCN1C(=O)[C@@H](N)Cc1ccc(O)cc1 [Tyr-Pro-Phe-Pro-Gly-methyl ester] (H-YPFPG-OMe) | strong specific opiate-like activity | 
2 | methionine-enkephalin [reference compound] |  | completely lost the opiate activity
3 | casein | neither the casein itself nor its chloroform/methanol (65/35, vol/vol) extracts, shows a pharmacological, in this case an opiate-like, activity | 
4 | YPFPGPI [β-casomorphin-7, Tyr-Pro-Phe-Pro-Gly-Pro-Ile] |  | did not result in any loss of opiate activity
5 | COC(=O)CNC(=O)[C@@H]1CCCN1C(=O)[C@H](Cc1ccccc1)NC(=O)[C@@H]1CCCN1 [end product 4b, Pro-Phe-Pro-Gly-metester] (H-PFPG-OMe) | did not result in any opiate-like activity | 
